Assay results taken from patent US20180110824A1, “Macrocyclic Modulators of the Ghrelin Receptor” (Ocera Therapeutics, Inc., priority 2016, published 2018).

Columns and labels:
[1] = system: gastric emptying in fasted rats; experiment: Gastric emptying in fasted rats (phenol red methylcellulose meal); type: in vivo, rat; conditions: i.v.
Protocol: To examine the effects of compounds of the invention in a model for gastroparesis, compounds were evaluated for possible effects on gastric emptying in fasted rats.
GHRP-6 and test samples were dissolved in vehicle of 9% HPBCD/0.9% NaCl. Immediately following oral administration of methylcellulose (2%) containing phenol red (0.05%) (2 mL/rat), test substances or vehicle (9% HPBCD/0.9% NaCl) were each administered intravenously (i.v.) at a dosing volume of 5 mL/kg.
Male Wistar rats were provided by LASCO (A Charles River Licensee Corporation, Taiwan). Space allocation for 6 animals was 45×23×15 cm. Animals were housed in APEC® cages and maintained in a controlled temperature (22° C.-24° C.) and humidity (60% -80%) environment with 12 h light, 12 h dark cycles for at least one week in the laboratory prior to being used. Free access to standard lab chow for rats (Lab Diet, Rodent Diet, PMI Nutrition International, USA) and tap water was granted. All aspects of this work including housing, experimentation and disposal of animals were performed in general accordance with the Guide for the Care and Use of Laboratory Animals (National Academy Press, Washington, D.C., 1996).
Test substances were each administered intravenously to a group of 5 O/N-fasted Wistar derived male rats weighing 200±20 g immediately after methylcellulose (2%) containing phenol red (0.05%) was administered orally at 2 mL/animal. The animals were then sacrificed 15 minutes later. The stomach was immediately removed, homogenized in 0.1 N NaOH (5 mL) and centrifuged. Following protein precipitation by 20% trichloroacetic acid (0.5 mL)and re-alkalization of the supernatant with 0.1 N NaOH, total phenol red remaining in the stomach was determined by a colorimetric method at 560 nm. A 30 percent or more (≥30%) increase in gastric emptying, detected as the decrease in phenol red concentration in the stomach relative to the vehicle control group, is considered significant.
• 1. Overnight-fasted rats (male Wistar, ˜200 g, N=5/group) were given a meal of methylcellulose (2%) by intragastric gavage. The meal was labeled with phenol red (0.05%). • 2. […] Animals were sacrificed 15 minutes later; the stomach was immediately removed and homogenized in 0.1 N NaOH and centrifuged. • 4. Total phenol red remaining in the stomach was quantified by a colorimetric method at 560 nm. • 5. A >30% increase in gastric emptying, detected based on the phenol red concentration in comparison to the control group, is considered significant.

[2] = target: T1, hGHS-R1a (Homo sapiens, UniProt Q92847); experiment: hGHS-R1a receptor agonism and desensitization by FLIPR in HEK293 cells; type: cell-based
T1 construct: expressed in transfected cells; host or cells: HEK293
T1 sequence (Q92847 whole entry): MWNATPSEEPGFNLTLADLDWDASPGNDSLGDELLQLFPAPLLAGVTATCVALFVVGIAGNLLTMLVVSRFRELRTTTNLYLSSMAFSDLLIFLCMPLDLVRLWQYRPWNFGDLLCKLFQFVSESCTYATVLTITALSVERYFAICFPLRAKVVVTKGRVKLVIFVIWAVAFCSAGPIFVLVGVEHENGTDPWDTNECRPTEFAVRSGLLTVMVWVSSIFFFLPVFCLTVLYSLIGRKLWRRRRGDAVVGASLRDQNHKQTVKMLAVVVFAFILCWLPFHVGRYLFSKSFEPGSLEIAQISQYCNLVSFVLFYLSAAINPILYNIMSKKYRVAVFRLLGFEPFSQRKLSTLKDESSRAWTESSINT
Protocol: • 1. Studies by FLIPR (Fluorometric Imaging Plate Reader, Molecular Devices). • 2. Assay performed on HEK293 cells expressing hGHS-R1a. • 3. […] A DC50 value is calculated.

[3] = system: rat model of post-operative ileus (POI); experiment: Gastric emptying and intestinal transit in rat model of postoperative ileus; type: in vivo
Excerpt: This clinically relevant model for POI is adapted from that of […].; Simmons, R. L.; Bauer, A. J. Surgical manipulation of the gut elicits an intestinal muscularis inflammatory response resulting in postsurgical ileus. Ann. Surg. 1998, 228, 652-663.) Other known models can also be used to study the effect of compounds of the invention. […] Rat, Sprague-Dawley, male, 300 g. • 2. Fasted O/N prior to study. • 1. Isofluorane anaesthesia under sterile conditions. • 2. Midline abdominal incision. • 3. Intestines and caecum were eviscerated and kept moist with saline. • 4. the intestines and caecum were manipulated along its entire length with moist cotton applicators analogous to the 'running of the bowel' in the clinical setting. This procedure was timed to last for 10 min. • 5. Intestines were gently replaced into the abdomen and the abdominal wound was stitched closed under sterile conditions. • 1. Rat was allowed to recover from isofluorane anaesthesia. • 2. Test compounds (or vehicle) were administered intravenously via previously implanted jugular catheter. • 3. Immediate intragastric gavage of methylcellulose (2%) labeled with radioactive ^99mTc, T=0. • 1. At t=15 min, animal was euthanized with CO2. • 2. Stomach and 10 cm sections along the small intestine were immediately ligated, cut and placed in tubes for measuring of ^99mTc in gamma counter. • 3. Stomach emptying and small intestinal transit were measured by calculation of the geometric mean. Geometric mean=Σ(% total radioactivity×number of segment)/100 • 1. Model adapted from Kälff et al. (1998), Ann Surg 228:652-63. • 2. Rats (male, Sprague-Dawley, 250-300 g) were implanted with jugular vein catheters to accommodate dosing of test articles. • 3. Rats were fasted O/N, anesthetized with isofluorane and subjected to abdominal surgery. • 4. Following an abdominal incision, the smalt intestine caecum and large intestine were eviscerated for a period of 15 min and kept moist with saline. • 5. […] Radioactivity (^99mTc) in each tissue isolate was measured as a means of measuring the transit of the meal.

`CC1C(=O)NC(Cc2ccc(F)cc2)C(=O)NCCCc2ccccc2O[C@H](C)CNC(C2CC2)C(=O)N1C` (stereo partly shown) [compound 298] was tested, and the “gastric emptying of a meal in naïve rat” value ([1]; FIGS. 14A and 14B) was “caused significant gastric emptying in a dose-dependent manner”, the “potency superior to metoclopramide in gastric emptying” value ([1]; naïve rats, FIG. 14B) was roughly 100 fold and the “desensitization potency lower than other ghrelin agonists (ghrelin peptide, capromorelin)” value ([2]; FIG. 13C) was roughly 10 fold. For the same compound, the “DC50 value less potent than the EC50 value” ([2]; FLIPR, HEK293) was greater than 6 fold, the agonist type ([2]; FLIPR, HEK293) was “full agonist” and the EC50 ([2]; FLIPR, HEK293 cells expressing hGHS-R1a, FIG. 13A) was 5 nM. For the same compound, the DC50 ([2]; read-out: DC50 (pre-treatment concentration that desensitizes the ghrelin EC100 response by 50%), 3 minutes pre-treatment, FLIPR, HEK293, FIG. 13B) was 32 nM, the “promotion of GI transit (geometric center of the meal) vs POI+vehicle” value ([3]; 100 μg/kg (i.v.)) was 2.7 × and the “effect on postoperative ileus vs POI+vehicle treated rats” value ([3]; 100 μg/kg i.v., n=5, FIG. 8) was “significantly improves postoperative ileus”. The “gastric emptying and intestinal transit in POI rats” value ([3]; 100 and 300 μg/kg (i.v.)) was “significantly increased gastric emptying and intestinal transit”.
